# Patent US20090047304A1, “Composition For Body Fat Reduction” (priority 2004, published 2009)
# Tests used:
# [1] = Double-blind 6-week intake test of test capsules with walking exercise; rate of body fat and body weight measured; assay type: in vivo, human; details: by intake of astaxanthin, 6 weeks
# Protocol: This Hematococcus alga extract was formed into a capsule containing 6 mg of astaxanthin in terms of the free form (test capsule) and used for test. As placebo capsule (control capsule), a capsule containing 0 mg of astaxanthin and having the same shape was used for test.
# 32 persons to be tested who were healthy women 23-57 years old were divided at random into two groups i.e. test and control groups, each consisting of 16 persons. The allocation of persons to be tested into test and control groups was conducted in a double-blind method not so as to know persons to be tested and persons participated in test the fact that each of persons to be tested belongs to which group.
# Each of persons to be tested in test group took two test capsules a day after supper while each of persons in control group took two placebo capsules a day after supper. The intake period of term (test period of term) was 6 weeks. The rate of body fat and body weight were measured at the beginning (0 week) and the completion (6 weeks) of test for all persons. The rate of body fat was measured with a weighing meter [TBF-511, a product of Tanita Co. Ltd.]
# Exercise loaded on all persons to be tested in test period of term was walking. The quantity of exercise was determined by a maximum heart rate countering method. […]
# [2] = cited from earlier work
# [3] = Takahashi et al.; cited from earlier work
compound,measurement,setting,value
"CC1=C(/C=C/C(C)=C/C=C/C(C)=C/C=C/C=C(C)/C=C/C=C(C)/C=C/C2=C(C)C(=O)C(O)CC2(C)C)C(C)(C)CC(O)C1=O (stereo not drawn) [astaxanthin, 3,3′-dihydroxy-β, β-carotene-4,4′-dione]",rate of body fat (in words),[1],decreases
same,"antioxidative action, times as strong as vitamin E",[2]; relative to vitamin E,about 1000 times
same,"antioxidative action, times as strong as β-carotene",[2]; relative to β-carotene,about 40 times
same,mutagenicity,[3],has not been observed having any mutagenicity
